From ChEMBL document CHEMBL2021839, “Pyridine alkaloids from Senna multijuga as acetylcholinesterase inhibitors” (J Nat Prod, 2012)

Tests used:
[1] = molecular target: Acetylcholinesterase (Electrophorus electricus) (UniProt O42275); test: Inhibition of electric eel AChE assessed as minimum concentration required to inhibit enzyme activity after 20 mins by TLC bioautographic assay
[2] = molecular target: Acetylcholinesterase (Electrophorus electricus) (UniProt O42275); test: Inhibition of electric eel AChE using acetylthiocholine as substrate at 350 uM by Ellman's method

Chain of Acetylcholinesterase (Electrophorus electricus) (O42275 24-633 limits assumed): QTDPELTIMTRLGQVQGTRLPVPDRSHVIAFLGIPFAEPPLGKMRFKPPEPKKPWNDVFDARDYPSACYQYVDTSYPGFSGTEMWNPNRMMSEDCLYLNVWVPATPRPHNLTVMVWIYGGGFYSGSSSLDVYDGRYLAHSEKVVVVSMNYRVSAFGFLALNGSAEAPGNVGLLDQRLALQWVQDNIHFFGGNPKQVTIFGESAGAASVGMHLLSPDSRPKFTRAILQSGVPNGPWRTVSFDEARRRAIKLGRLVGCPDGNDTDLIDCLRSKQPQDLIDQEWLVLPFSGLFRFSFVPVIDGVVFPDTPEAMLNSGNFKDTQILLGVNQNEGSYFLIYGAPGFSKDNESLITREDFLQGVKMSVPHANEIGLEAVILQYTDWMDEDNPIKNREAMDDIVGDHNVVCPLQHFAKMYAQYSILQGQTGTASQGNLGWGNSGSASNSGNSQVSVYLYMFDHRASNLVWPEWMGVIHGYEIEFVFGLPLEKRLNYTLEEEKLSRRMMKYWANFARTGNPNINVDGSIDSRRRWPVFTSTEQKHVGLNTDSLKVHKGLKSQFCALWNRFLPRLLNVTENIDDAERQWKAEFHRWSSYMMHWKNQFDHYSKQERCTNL

SMILES | MIC [1] [µg] | inhibition [2] [%]
CNC(=O)Oc1ccc2c(c1)[C@]1(C)CCN(C)[C@@H]1N2C | 0.1 | 94
COC(=O)CCCc1ccc(O)c(C)n1 | 3 | 40
CCCCC(O)CCCCCCCc1ccc(O)c(C)n1 (racemic) | 1.5 | 19
CCCCCC(O)CCCCCCc1ccc(O)c(C)n1 (racemic) | 0.8 | 52
Cc1nc(CCCCCCC(O)CCCCCO)ccc1O (racemic) | 1.5 | 51
Cc1nc(CCCCCCCC(O)CCCCO)ccc1O (racemic) | 6 | 28
